Each block holds one molecule with its values, some of them ahead of it.
Legend:
[1] = tested on: HepG2; test: Anticancer activity against human HepG2 cells assessed as cell growth inhibition incubated for 24 hrs by MTT assay; assay type: functional, cell-based; conditions: HepG2, 24 h
[2] = tested on: HeLa; test: Anticancer activity against human HeLa cells assessed as cell growth inhibition incubated for 24 hrs by MTT assay; assay type: functional, cell-based
[3] = target: T1, Tyrosine-protein kinase JAK3 (Homo sapiens, UniProt P52333); test: Inhibition of JAK3 (unknown origin) incubated for 20 mins
T1 sequence (P52333 whole entry): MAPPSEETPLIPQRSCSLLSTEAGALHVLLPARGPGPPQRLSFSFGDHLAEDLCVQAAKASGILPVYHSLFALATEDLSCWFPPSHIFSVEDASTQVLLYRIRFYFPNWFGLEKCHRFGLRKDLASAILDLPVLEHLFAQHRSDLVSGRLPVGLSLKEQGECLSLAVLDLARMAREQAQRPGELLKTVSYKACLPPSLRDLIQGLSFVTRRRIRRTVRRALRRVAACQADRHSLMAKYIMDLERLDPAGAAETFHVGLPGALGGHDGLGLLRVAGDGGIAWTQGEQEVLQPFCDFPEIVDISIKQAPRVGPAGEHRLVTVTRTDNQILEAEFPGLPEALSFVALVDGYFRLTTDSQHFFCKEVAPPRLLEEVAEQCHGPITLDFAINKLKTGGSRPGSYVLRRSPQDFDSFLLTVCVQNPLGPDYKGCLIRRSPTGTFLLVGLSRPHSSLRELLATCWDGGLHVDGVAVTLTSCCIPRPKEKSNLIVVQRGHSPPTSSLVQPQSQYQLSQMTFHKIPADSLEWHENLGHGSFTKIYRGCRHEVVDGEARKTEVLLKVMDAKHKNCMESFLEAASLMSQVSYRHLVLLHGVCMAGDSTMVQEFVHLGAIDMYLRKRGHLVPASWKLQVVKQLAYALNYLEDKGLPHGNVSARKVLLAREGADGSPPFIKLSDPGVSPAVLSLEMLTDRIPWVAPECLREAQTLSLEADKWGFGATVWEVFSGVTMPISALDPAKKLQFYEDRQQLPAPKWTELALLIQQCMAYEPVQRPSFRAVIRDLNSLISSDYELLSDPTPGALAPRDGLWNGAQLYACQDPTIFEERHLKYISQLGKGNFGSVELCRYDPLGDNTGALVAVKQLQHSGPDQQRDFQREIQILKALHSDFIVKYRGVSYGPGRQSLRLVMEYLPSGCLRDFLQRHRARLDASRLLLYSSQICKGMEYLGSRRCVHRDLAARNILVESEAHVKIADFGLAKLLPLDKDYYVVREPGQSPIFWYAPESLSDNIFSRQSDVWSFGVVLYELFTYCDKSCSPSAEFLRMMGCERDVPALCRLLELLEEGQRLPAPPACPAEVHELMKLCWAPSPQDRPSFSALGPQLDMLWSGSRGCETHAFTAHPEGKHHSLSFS

[4] = tested on: A549; test: Anticancer activity against human A549 cells assessed as cell growth inhibition incubated for 24 hrs by MTT assay; assay type: functional, cell-based; conditions: A549, 24 h
[5] = tested on: U-251; test: Anticancer activity against human U-251 cells assessed as cell growth inhibition incubated for 24 hrs by MTT assay; assay type: functional, cell-based; conditions: U-251, 24 h
[6] = tested on: Staphylococcus aureus; test: Antibacterial activity against Staphylococcus aureus assessed as bacterial growth inhibition incubated for 24 hrs by MTT based ELISA analysis; assay type: functional
[7] = tested on: Bacillus subtilis; test: Antibacterial activity against Bacillus subtilis assessed as bacterial growth inhibition incubated for 24 hrs by MTT based ELISA analysis; assay type: functional
[8] = tested on: Escherichia coli; test: Antibacterial activity against Escherichia coli FabH assessed as bacterial growth inhibition incubated for 24 hrs by MTT based ELISA analysis; assay type: functional, organism-based
[9] = target: T2, Prostaglandin G/H synthase 2 (Homo sapiens, UniProt P35354); test: Inhibition of COX2 (unknown origin)
T2 sequence (P35354 whole entry): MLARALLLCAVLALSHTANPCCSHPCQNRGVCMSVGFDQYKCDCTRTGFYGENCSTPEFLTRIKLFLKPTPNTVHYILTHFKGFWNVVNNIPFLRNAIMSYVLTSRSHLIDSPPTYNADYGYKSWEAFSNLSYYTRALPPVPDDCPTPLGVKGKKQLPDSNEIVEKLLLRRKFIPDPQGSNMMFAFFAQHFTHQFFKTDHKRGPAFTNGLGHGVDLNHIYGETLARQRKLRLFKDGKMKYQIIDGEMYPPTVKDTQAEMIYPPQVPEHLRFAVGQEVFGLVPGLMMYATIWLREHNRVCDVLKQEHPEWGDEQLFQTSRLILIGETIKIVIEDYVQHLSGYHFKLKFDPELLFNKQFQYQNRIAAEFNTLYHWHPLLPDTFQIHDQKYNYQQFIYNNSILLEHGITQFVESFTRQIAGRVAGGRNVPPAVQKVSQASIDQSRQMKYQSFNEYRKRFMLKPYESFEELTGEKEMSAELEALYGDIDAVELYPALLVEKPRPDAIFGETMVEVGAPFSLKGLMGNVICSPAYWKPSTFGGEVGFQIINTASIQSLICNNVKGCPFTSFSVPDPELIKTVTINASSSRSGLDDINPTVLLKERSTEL

[10] = target: Prostaglandin G/H synthase 1 (Homo sapiens, UniProt P23219); test: Inhibition of COX1 (unknown origin)
Prostaglandin G/H synthase 1, sequence (P23219 whole entry): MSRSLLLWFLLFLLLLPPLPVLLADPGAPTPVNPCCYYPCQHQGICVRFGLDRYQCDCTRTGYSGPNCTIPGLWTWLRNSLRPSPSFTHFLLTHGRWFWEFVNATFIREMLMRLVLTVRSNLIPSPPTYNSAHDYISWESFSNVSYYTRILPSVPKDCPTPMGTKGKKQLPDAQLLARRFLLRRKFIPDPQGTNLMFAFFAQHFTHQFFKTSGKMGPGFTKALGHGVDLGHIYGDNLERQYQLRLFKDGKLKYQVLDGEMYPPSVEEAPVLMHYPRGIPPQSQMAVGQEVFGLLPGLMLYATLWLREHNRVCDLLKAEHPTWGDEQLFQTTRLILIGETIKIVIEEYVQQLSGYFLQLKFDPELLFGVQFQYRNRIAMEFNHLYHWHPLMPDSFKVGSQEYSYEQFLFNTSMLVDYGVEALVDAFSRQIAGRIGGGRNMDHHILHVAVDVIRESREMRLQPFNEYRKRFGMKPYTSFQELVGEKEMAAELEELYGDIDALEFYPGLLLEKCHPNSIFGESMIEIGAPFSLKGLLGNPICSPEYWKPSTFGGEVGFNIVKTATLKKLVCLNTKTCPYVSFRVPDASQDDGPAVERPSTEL

IC50 [1]: 16 nM
IC50 [2]: 21 nM
IC50 [3]: 9 nM
IC50 [4]: 65 nM
IC50 [5]: 44 nM
SMILES: O=C(OCCn1c([N+](=O)[O-])cnc1/C=C/c1ccc(Cl)cc1Cl)c1ccc2c(c1)OCCO2

MIC [6]: 1.5 µg/mL
MIC [7]: 6 µg/mL
SMILES: O=C(N/N=C/C=C/c1ccccc1[N+](=O)[O-])c1cccc2c1OCCO2
IC50 [8]: 3500 nM

MIC [6]: 1.5 µM
MIC [7]: 1.5 µM
SMILES: O=C(CN1CCN(c2ccccn2)CC1)N1C(=O)S/C(=C\c2ccc3c(c2)OCCO3)C1=O
IC50 [8]: 60 nM

IC50 [9]: 9900 nM
IC50 [10]: 1900 nM
SMILES: COc1cc(C2Oc3cc(C=Cc4cc(O)cc(O)c4)ccc3OC2CO)cc(OC)c1O (stereo not drawn)

Reference: ChEMBL document CHEMBL5244242, “1,4-Benzodioxane, an evergreen, versatile scaffold in medicinal chemistry: A review of its recent applications in drug design” (Eur J Med Chem, 2020)
